Measurements reported in ChEMBL document CHEMBL5725232, “Inhibitors of matrix metalloproteinases” (2016).

What was measured:
[1] = molecular target: Matrix metalloproteinase-9 (Homo sapiens, UniProt P14780); experiment: (§1) Activity Assay: Stock solution of substrate (Mca-Lys-Pro-Leu-Gly-Leu-Dpa-Ala-Arg-NH2) was prepared in DMSO at a concentration of 6 mM. Assays were performed in an assay buffer (50 mM Tris pH 7.5, 300 mM NaCl, 10 uM ZnSO4, 5 mM CaCl2, 0.005% Brij-35). The final DMSO concentration in all assays was 1.0%. […] The assays were carried out at 37° C. The fluorescence changes, resulting from the substrate cleavage, were detected using excitation at 340 nm and emission wavelength of 405 nm using a Wallac 1420 Microplate Reader. The reaction mixtures were preincubated with the inhibitors for 30 minutes. The reactions were started by the addition of MMP substrate, and the fluorescence intensity changes were measured after 60 minutes. The obtained fluorescence values were normalized and % inhibition values calculated. Dose response curves were determined from 6 concentration points using three fold dilution steps, each concentration point was determined in dupllicate. IC50 values were calculated from the dose response curves.
Sequence of Matrix metalloproteinase-9 (P14780 whole entry): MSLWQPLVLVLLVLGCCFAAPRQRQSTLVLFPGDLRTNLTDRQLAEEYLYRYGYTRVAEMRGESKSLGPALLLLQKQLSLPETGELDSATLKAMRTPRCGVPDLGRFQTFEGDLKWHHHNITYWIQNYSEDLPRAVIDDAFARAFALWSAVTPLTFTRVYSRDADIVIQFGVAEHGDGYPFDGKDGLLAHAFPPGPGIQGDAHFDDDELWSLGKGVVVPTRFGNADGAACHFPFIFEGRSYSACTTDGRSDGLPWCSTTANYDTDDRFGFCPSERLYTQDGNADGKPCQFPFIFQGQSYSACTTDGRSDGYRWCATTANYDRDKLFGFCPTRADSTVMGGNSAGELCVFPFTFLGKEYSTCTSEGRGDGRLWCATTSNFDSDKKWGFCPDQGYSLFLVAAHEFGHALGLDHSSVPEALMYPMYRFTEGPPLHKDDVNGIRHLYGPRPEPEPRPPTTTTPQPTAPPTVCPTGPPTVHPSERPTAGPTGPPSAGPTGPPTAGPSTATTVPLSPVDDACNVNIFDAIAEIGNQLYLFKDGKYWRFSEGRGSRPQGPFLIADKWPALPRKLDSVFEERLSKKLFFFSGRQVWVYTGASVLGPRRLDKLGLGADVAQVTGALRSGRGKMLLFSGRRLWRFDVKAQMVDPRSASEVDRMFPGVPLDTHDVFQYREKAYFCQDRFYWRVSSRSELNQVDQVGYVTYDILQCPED

[2] = molecular target: 72 kDa type IV collagenase (Homo sapiens, UniProt P08253); experiment: as §1
Sequence of 72 kDa type IV collagenase (P08253 whole entry): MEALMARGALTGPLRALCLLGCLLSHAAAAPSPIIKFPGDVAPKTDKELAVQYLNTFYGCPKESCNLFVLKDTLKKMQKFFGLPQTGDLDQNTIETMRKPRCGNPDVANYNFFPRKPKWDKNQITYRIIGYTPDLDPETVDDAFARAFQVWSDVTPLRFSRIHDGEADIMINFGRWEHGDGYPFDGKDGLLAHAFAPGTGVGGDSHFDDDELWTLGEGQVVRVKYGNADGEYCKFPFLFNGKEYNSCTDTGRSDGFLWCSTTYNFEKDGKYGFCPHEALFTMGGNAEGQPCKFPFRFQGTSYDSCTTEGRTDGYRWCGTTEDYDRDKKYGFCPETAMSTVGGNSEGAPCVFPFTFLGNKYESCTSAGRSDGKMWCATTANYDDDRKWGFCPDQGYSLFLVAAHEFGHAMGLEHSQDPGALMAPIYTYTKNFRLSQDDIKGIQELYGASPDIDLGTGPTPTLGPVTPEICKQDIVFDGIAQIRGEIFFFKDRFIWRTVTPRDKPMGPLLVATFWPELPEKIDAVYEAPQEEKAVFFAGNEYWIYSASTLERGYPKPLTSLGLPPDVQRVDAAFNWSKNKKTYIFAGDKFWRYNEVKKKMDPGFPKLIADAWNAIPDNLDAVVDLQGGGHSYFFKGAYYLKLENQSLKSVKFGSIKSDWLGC

[3] = molecular target: Collagenase 3 (Homo sapiens, UniProt P45452); experiment: as §1, with “The fluorescence changes, resulting from the substrate cleavage, were detected using excitation at 340 nm and emission wavelength of 405 nm using a Wallac 1420 Microplate Reader.” left out
[4] = molecular target: T1, Interstitial collagenase (Homo sapiens, UniProt P03956); experiment: as §1
T1 sequence (P03956 whole entry): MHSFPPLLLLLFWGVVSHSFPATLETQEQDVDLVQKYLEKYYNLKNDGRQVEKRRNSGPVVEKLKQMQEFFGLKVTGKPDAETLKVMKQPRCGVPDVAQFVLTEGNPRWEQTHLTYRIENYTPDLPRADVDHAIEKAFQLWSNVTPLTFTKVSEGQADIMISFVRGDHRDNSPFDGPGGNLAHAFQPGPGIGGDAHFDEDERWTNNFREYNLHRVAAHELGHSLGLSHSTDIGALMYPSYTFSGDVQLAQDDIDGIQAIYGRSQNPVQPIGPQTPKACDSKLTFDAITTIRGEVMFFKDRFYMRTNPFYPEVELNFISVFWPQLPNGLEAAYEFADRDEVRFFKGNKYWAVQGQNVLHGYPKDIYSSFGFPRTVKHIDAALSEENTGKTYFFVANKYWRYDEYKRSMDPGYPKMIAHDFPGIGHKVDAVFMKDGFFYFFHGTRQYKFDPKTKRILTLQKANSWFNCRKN

SMILES | IC50 [1] [µM] | IC50 [2] [µM] | IC50 [3] [µM] | IC50 [4] [µM]
O=C(O)c1csc(CN(Cc2ccc(OCc3ccccc3)cc2)CC(c2ccccc2)c2ccccc2)n1 | 10 | 26 | 1.76 | 
CCOC(=O)c1csc(CN(Cc2ccc(F)cc2)Cc2ccc(OCc3ccccc3)cc2)n1 | 140 | > 500 | 27 | 280
